The values that follow come from US10307427B2, “Apoptosis signal-regulating kinase inhibitors” (Gilead Sciences, Inc., priority 2012, dated 2019).

The assay concerns CXCL1 in human whole blood. The assay can be described thus: Human whole blood CXCL1 assay (Auranofin stimulation). The format is cell-based. The note with it: 5 μM Auranofin, 24 hours, CXCL1 quantified, average of donors, read-out: WB EC50 nM (n = 4). The protocol: Human Whole Blood CXCL1 Assay
Human blood collected in sodium heparin glass vacutainer tubes (BD Biosciences #366480) was obtained from Stanford Blood Center (Palo Alto, Ca). Red blood cell Ammonium-Chloride-Potassium (ACK) lysis buffer was obtained from Invitrogen (A10492-01) Phosphate buffered saline (PBS, 21-031-CV) and RPMI640 media (10-040-CV) were purchased from Cellgro. 50 ml conical tubes were from BD Biosciences (352070). Multiscreen Filter plates (MSBVS 1210) used along with vacuum manifold for 96-well plate (MAVM0960R) were purchased from EMD Millipore Inc. Transfer pipettes (13-711-20) and hemocytometer (0267110) were purchased from Thermo Fisher Scientific. An Allegra X15R from Beckmann Coulter was used for all the centrifugation steps in the isolation of PBMCs.
ASK1 inhibitors and Auranofin (Enzo Life Sciences Inc. BML-EI206-0100) were dissolved in dimethyl sulfoxide (DMSO, Sigma Aldrich cat#472301) at a concentration of 10 mM and 100 mM, respectively. […] CXCL1 protein was quantified with an ELISA assay from Millipore.
A 10 mM ASK1 inhibitor DMSO stock was diluted in saline to create a 100 μM (10×) working solution. […] 50 μl of the resulting supernatant from each well was transferred to a new 96 well assay plate and the amount of CXCL1 was quantified by a Procarta immunoassay following the manufacturer's instructions. […]

With `O=C(Nc1csc(-c2nncn2C2CC2)n1)c1cc(-n2cnc(C3CC3)c2)c(N2CCOCC2)cn1` [Example 1, 4-(4-cyclopropyl-1H-imidazol-1-yl)-N-(2-(4-cyclopropyl-4H-1,2,4-triazol-3-yl)thiazol-4-yl)-5-morpholinopicolinamide], the EC50 (as a rule, the concentration giving half of the maximal effect) was 243 nM.
For `C[C@H](n1cnnc1-c1nc(NC(=O)c2cc(-n3cnc(C4CC4)c3)c(N3CCOCC3)cn2)cs1)C(F)(F)F` [Example 3, (S)-4-(4-cyclopropyl-1H-imidazol-1-yl)-5-morpholino-N-(2-(4-(1,1,1-trifluoropropan-2-yl)-4H-1,2,4-triazol-3-yl)thiazol-4-yl)picolinamide], the EC50 is 202 nM.
